Results published in publication PMC4382154, “Screening of the Pan-African Natural Product Library Identifies Ixoratannin A-2 and Boldine as Novel HIV-1 Inhibitors” (PLoS ONE, 2015).
Counter-ions that a name gives are not always drawn. Like-named read-outs stand apart in the source and are kept apart here.

Columns and labels:
[1] = Cell toxicity in HIV-1 infected CEM-GXR cultures (forward/side scatter); assay type: cell-based; conditions: human, HIV-1NL4-3-infected CEM-GXR cells (CD4+ T-lymphocyte line), Day 4
Description: (§1) CEM-GXR cells are an immortalized CD4+ T-lymphocyte line engineered that naturally express the HIV-1 coreceptor CXCR4 and have been further engineered to express the HIV-1 co-receptor CCR5 and a Tat-driven LTR-GFP expression cassette. As such, intracellular GFP expression indicates HIV-1 infection. Cultures of 10^5 CEM-GXR cells were seeded into 96-well plates with RPMI-1640 media (Sigma) supplemented with penicillin/streptomycin plus 20% fetal calf serum (R20+), infected with HIV-1 at a multiplicity of infection of 0.03 (to achieve 3% infected cells on Day 2), and incubated at 37°C and 5% CO2. 24 hours later, cells were pelleted at 750 g and resuspended in R20+ containing compound or 0.1% DMSO. […] Cells were then incubated at 37°C and 5% CO2 for an additional 72 h. 5,000 cells from each culture were measured for cell toxicity and GFP expression by flow cytometry. Flow cytometry data were analyzed using FlowJo v. 8.8.7 software (FlowJo LLC, Ashland, OR). […] Background GFP expression in uninfected cultures was set at 0.05% GFP-positive cells. For each experiment, all data points were obtained in triplicate. All data are reported as the mean ± s.e.m. from at least 3 independent experiments performed with different virus stocks and/or performed on different days. However, all experiments that compare HIV-1NL4-3 and mutant HIV-1 were performed in parallel. EC50 and CC50 values for each compound were calculated from at least four concentrations. Statistical analyses were performed using Student’s unpaired t test, with a p value < 0.05 plus a Bonferroni correction to adjust for multiple comparisons considered significant.
(§2) To assess the effects of these eight compounds on cell viability and HIV-1 replication, we infected a GFP-reporter CEM CD4+ T cell line (CEM-GXR) with the NL4-3 strain of HIV-1 (HIV-1NL4-3). Briefly, cells were infected with HIV-1NL4-3 at a multiplicity of infection of 0.03 (Day 0), followed by removal of HIV-1 and addition of compound (or 0.1% DMSO vehicle control) 24 hours later (Day 1) and incubation for an additional 72 hours to allow HIV-1 spread (Days 2–4). On Days 2 and/or 4, the percent HIV-1 infected (i.e., GFP-expressing) cells was measured by flow cytometry. Cell viability was assessed by measuring the percentage of cells displaying normal forward- and side-scatter parameters in drug-treated, HIV-1 infected cultures compared to 0.1% DMSO-treated, HIV-1 infected control cultures. […] HIV-1NL4-3 replication was unaffected by the presence of 0.1% DMSO vehicle control (Fig. 2B).

HIV-1NL4-3 [2] = test: microbe, parasite or virus in culture; assay type: cell-based; conditions: for HIV-1 inhibition in the viral replication assay (in words): up to 100 μM; for EC50: read-out: HIV-1NL4-3 inhibition (EC50); for replication of HIV-1NL4-3 in CEM-GXR cells (in words): 0.1 μM
Description: as §1, §2

HIV-1RT = test: microbe, parasite or virus in culture; assay type: cell-based; conditions: 0.1 μM, CEM-GXR cells, Day 4
Description: CEM-GXR cells are an immortalized CD4+ T-lymphocyte line engineered that naturally express the HIV-1 coreceptor CXCR4 and have been further engineered to express the HIV-1 co-receptor CCR5 and a Tat-driven LTR-GFP expression cassette. As such, intracellular GFP expression indicates HIV-1 infection [26]. Cultures of 10^5 CEM-GXR cells were seeded into 96-well plates with RPMI-1640 media (Sigma) supplemented with penicillin/streptomycin plus 20% fetal calf serum (R20+), infected with HIV-1 at a multiplicity of infection of 0.03 (to achieve 3% infected cells on Day 2), and incubated at 37°C and 5% CO2. 24 hours later, cells were pelleted at 750 g and resuspended in R20+ containing compound or 0.1% DMSO. […] Cells were then incubated at 37°C and 5% CO2 for an additional 72 h. 5,000 cells from each culture were measured for cell toxicity and GFP expression by flow cytometry. […] Background GFP expression in uninfected cultures was set at 0.05% GFP-positive cells. For each experiment, all data points were obtained in triplicate. All data are reported as the mean ± s.e.m. from at least 3 independent experiments performed with different virus stocks and/or performed on different days. […] EC50 and CC50 values for each compound were calculated from at least four concentrations. Statistical analyses were performed using Student’s unpaired t test, with a p value < 0.05 plus a Bonferroni correction to adjust for multiple comparisons considered significant.

HIV-1PR+RT = HIV-1PR+RT replication in CEM-GXR cells; assay type: cell-based; conditions: 0.1 μM, CEM-GXR cells, Day 4
Description: (§3) HIV-1Δvpu was constructed by digesting plasmid p210-13 3’ Δ-vpu with EcoRI and NheI enzymes. The resulting DNA fragment was then ligated into wild-type pNL4-3 plasmid digested with the same enzymes. HIV-1Δvpu and HIV-1NL4-3 viral stocks were prepared by transfection of HEK-293T cells, as previously described. Patient plasma-HIV-1 RNA sequences were analyzed for resistance mutations using the HIV Drug Resistance Database Genotype Resistance Interpretation Algorithm (hivdb.stanford.edu). Recombinant HIV-1NL4-3 expressing patient-derived HIV-1 sequences harboring resistance mutations to protease and reverse transcriptase inhibitors (HIV-1PR+RT), reverse transcriptase inhibitors (HIV-1RT), and integrase inhibitors (HIV-1INT) were generated by homologous recombination following co-transfection as reported.
as §1
(§4) To investigate the mechanisms by which ixoratannin A-2 and boldine may block HIV-1 replication, we used a previously-reported HIV-1NL4-3 strain lacking the Vpu coding region (HIV-1Δvpu). We also constructed recombinant HIV-1NL4-3 strains harboring protease, reverse transcriptase, and/or integrase sequences of HIV-1 strains from patients who had developed resistance to the protease inhibitor Indinavir (IND), the non-nucleoside reverse transcriptase inhibitor Efavirenz (EFV), and/or the integrase inhibitor Raltegravir (RAL) (denoted HIV-1PR+RT, HIV-1RT, and HIV-1INT, respectively). Re-sequencing of the recombinant viruses confirmed the presence of multiple mutations known to confer resistance to IND, EFV, and/or RAL (Table 2).

HIV-1Δvpu = HIV-1Δvpu replication in CEM-GXR cells; assay type: cell-based; conditions: 0.1 μM, Day 4
Description: as §3, §1, §4

CEM-GXR cells = test: Cell toxicity in HIV-1 infected CEM-GXR cultures (forward/side scatter); assay type: cell-based; conditions: HIV-1NL4-3-infected CEM-GXR cells, Day 4
Description: as §1, §2

[3] = tested on: HCV J4(1b)/JFH1(2a) chimera; test: HCV replication assay in Huh-7.5 cells (NS5A flow cytometry); assay type: cell-based; conditions: Hepatitis C virus, Huh7.5, 72 h, read-out: inhibition of HCV replication
Description: The intergenotypic chimeric HCV used in this study—Bi-Gluc-J4(1b)/JFH1(2a) containing cell culture adaptive mutations in NS2 (T2996C) and NS3 (A4827T)—was previously described and subsequently modified to express Gaussia luciferase in the first cistron. HCV stocks used for infection were generated by electroporation of in vitro transcribed RNA into Huh-7.5.1 cells and pooling of supernatants harvested between 60–96 hr post-electroporation. HCV infectivity was determined by limiting dilution assay as previously described.
HCV cell culture was performed as described previously. Briefly, 4*10^4 Huh-7.5 cells were seeded into 24-well plates and incubated at 37°C and 5% CO2 overnight. Cells were then infected with HCV (multiplicity of infection = 0.3) for 6 hours, followed by removal of HCV and incubation with fresh medium containing compounds at stated concentrations. Cultures were then incubated for 72 hours, with no more than 0.1% DMSO present in culture medium. Cells were then trypsinized, resuspended in culture medium, and stained with the 9E10 alexa-fluor-conjugated antibody to NS5A [27]. Cells were fixed and analyzed for NS5A fluorescence by flow cytometry, and data were analyzed using FlowJo software. […] For each culture, NS5A fluorescence was determined as the percent gated cells relative to percent gated cells in infected cultures plus 0.1% DMSO. All experiments were performed in at least duplicate in at least two independent experiments.
We therefore assessed the effects of ixoratannin A-2, boldine, and BIT-225 on replication of HCV, which also encodes a viral ion channel and protease. Using an established cell culture system, Huh-7.5 cells were infected with an intergenotypic chimera between the J4 (genotype 1b) and JFH1 (genotype 2a) strain of HCV for 6 hours, followed by incubation with fresh medium containing compounds at defined concentrations. Infected cells were then incubated for an additional 72 hours. NS5A expression, a marker of HCV infection, was then detected by flow cytometry.

HIV-1INT = HIV-1INT replication in CEM-GXR cells; assay type: cell-based; conditions: 0.1 μM, CEM-GXR cells, Day 4
Description: as §3, §1, §4

HIV-1NL4-3 [4] = test: HIV-1 replication assay in PBMCs (p24Gag ELISA); assay type: cell-based; conditions: 10 μM, Day 12
Description: PBMCs from HIV-1 negative subjects, purchased commercially (StemCell Technologies, Vancouver, Canada), were maintained in RPMI-1640 media (Sigma) supplemented with penicillin/streptomycin plus 10% fetal calf serum (R10+). 72 h prior to viral infection, PBMCs were stimulated by addition of 5 μg/mL phytohaemaglutanin (PHA) (Day 0) and maintained in R10+ medium supplemented with 100 units/mL human IL-2. At Day 3 following cellular activation, 3x10^5 cells were infected with HIV-1NL4-3 at a multiplicity of infection of 0.003 (0.3% infected cells) and incubated at 37°C for 6h, followed by wash and re-suspension in fresh R10+ medium supplemented with 100 units/mL human IL-2 and with or without compounds at defined concentrations. Culture supernatants were collected and replaced with fresh medium supplemented with human IL-2 every 3 days (i.e., Days 6, 9, and 12) with or without fresh compounds. Viral replication at day 12 was monitored by measuring cell culture supernatant levels of p24^Gag by ELISA (XpressBio, Frederick, MD) following manufacturer’s instructions.

[5] = tested on: monocyte derived macrophages; conditions: cited from earlier work
in vitro = assay type: cell-based; conditions: human
[6] = PBMC cytotoxicity (ViaCount Assay); assay type: cell-based; conditions: human, PHA-activated PBMCs; Day 5, ViaCount
Description: Cytotoxicity was determined by ViaCount Assay (Millipore). Briefly, Day 3 PHA-activated PBMCs (3*10^5) were cultured in R10+ supplemented with 100 units/mL human IL-2 in the presence of 0.1% DMSO or compounds at defined concentrations. At Day 5, 15 μL of each PBMC culture was mixed with Guava ViaCount Reagent at a 1:10 dilution. Data were collected using a Guava EasyCyte HT Flow Cytometer (Millipore).

[7] = tested on: Madin-Darby bovine kidney cells; design: method as in PMID 20832370; conditions: read-out: CC50 in bovine viral diarrhea virus-infected Madin-Darby bovine kidney cells; cited from earlier work
SupT1 and CEM-SS cells = conditions: cited from earlier work
[8] = Human immunodeficiency virus 1, 96 h, CEM-GXR cells, Day 4

| SMILES | CC50 at 72 h [1] [µM] | HIV-1 inhibition in the viral replication assay (in words) (HIV-1NL4-3 [2]; CEM-GXR cells) | replication of HIV-1NL4-3 in CEM-GXR cells (in words) (HIV-1NL4-3 [2]; Day 4) | replication of HIV-1Δvpu in CEM-GXR cells (in words) (HIV-1Δvpu) | EC50 (HIV-1NL4-3 [2]; [8]) [µM] | further results |
| --- | --- | --- | --- | --- | --- | --- |
| O=C1OCc2cc3cccc(OC4OC(CO)C(O)C(O)C4O)c3c(O)c21 (stereo not drawn) [geshoidin] | > 10 | did not inhibit HIV-1 |  |  |  | EC50 (HIV-1NL4-3 [2]; Human immunodeficiency virus 1, CEM-GXR, 96 h): > 100 µM |
| O=C1Nc2ccc(Cl)cc2[C@@](C#CC2CC2)(C(F)(F)F)O1 [EFV, Efavirenz, reference compound] |  |  | inhibited | inhibited |  | HIV-1RT replication fold greater than HIV-1NL4-3 (HIV-1RT): 3.4 fold; HIV-1PR+RT replication fold higher than HIV-1NL4-3 (HIV-1PR+RT): 2.6 fold |
| O=C(O[C@@H]1Cc2c(O)cc(O)cc2O[C@@H]1c1ccc(O)c(O)c1)c1cc(O)c(O)c(O)c1 [ECG, epicatechin gallate] | > 100 | did not observe antiviral activity |  |  | > 100 |  |
| CC(=O)c1c(O)cc(OC2OC(O)C(O)C(O)C2O)c(-c2c(C)cc(O)c3c2C(=O)c2cccc(O)c2C3=O)c1O (stereo not drawn) [2MA, 1-(3-acetyl-2,4-dihydroxy-6-((3,4,5,6-tetrahydroxytetrahydro-2H-pyran-2-yl)oxy)phenyl)-4,5-dihydroxy-2-methylanthracene-9,10-dione] | 50.9 | did not inhibit HIV-1 |  |  | > 100 |  |
| O=c1oc2c(O)c(O)cc3c(=O)oc4c(O)c(O)cc1c4c23 [EA, ellagic acid] | 52.3 | did not observe these activities |  |  | > 100 |  |
| COc1cc2ccc3c(OC)c(O)ccc3c2c(OC)c1O [PA, 1,5,7-trimethoxyphenanthrene-2,6-diol] | < 30 |  |  |  |  | CC50 (CEM-GXR cells): 26.8 µM |
| CC(N)C12CC3CC(CC(C3)C1)C2 (stereo not drawn) [rimantadine, rimantadine hydrochloride, reference compound] |  |  |  |  |  | inhibition at 50 µM [3]: 40.7% |
| CC(C)(C)NC(=O)[C@@H]1CN(Cc2cccnc2)CCN1C[C@@H](O)C[C@@H](Cc1ccccc1)C(=O)N[C@H]1c2ccccc2C[C@H]1O [IND, Indinavir, reference compound] |  |  | inhibited | inhibited |  | HIV-1PR+RT replication fold higher than HIV-1NL4-3 (HIV-1PR+RT): 2.7 fold |
| Cc1nnc(C(=O)NC(C)(C)c2nc(C(=O)NCc3ccc(F)cc3)c(O)c(=O)n2C)o1 [RAL, Raltegravir, reference compound] |  |  | inhibited | inhibited |  | HIV-1INT replication fold higher than HIV-1NL4-3 (HIV-1INT): 1.7 fold |
| Cn1cc(-c2cccc3cc(C(=O)NC(=N)N)ccc23)cn1 [BIT-225, reference compound] | 10.7 |  |  |  |  | reduced HIV-1 replication in PBMCs (p24Gag) (HIV-1NL4-3 [4]): 31.8%; CC50 [5]: 167 to 284 µM; inhibition at 30 µM [3]: 37.5%; CC50 at 72 h (in vitro): 52.9 µM; CC50 [6]: 12.8 µM; CC50 [7]: 11.6 µM; CC50 (SupT1 and CEM-SS cells): 32 to 67 µM |
